From BindingDB's records for PubMed 1738111 (University of Texas, 1992) come the findings set out here.

Broadly, the Ki is a dissociation constant, usually derived from enzyme kinetics or from competition with a known ligand. Higher therefore signals weaker binding.

The target of this assay is 5-hydroxytryptamine receptor 1B (Rattus norvegicus, UniProt P28564).
Sequence of 5-hydroxytryptamine receptor 1B (P28564 whole entry): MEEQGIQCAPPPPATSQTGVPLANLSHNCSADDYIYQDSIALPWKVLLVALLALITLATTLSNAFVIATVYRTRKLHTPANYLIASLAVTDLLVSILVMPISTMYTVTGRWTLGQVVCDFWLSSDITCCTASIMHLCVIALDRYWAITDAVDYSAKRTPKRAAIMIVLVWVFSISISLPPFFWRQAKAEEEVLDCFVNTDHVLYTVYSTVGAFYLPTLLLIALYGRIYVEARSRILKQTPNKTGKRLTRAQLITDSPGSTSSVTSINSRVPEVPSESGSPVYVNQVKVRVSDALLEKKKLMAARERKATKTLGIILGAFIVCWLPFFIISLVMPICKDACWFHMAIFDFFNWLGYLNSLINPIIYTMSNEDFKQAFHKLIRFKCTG
For `CN1C2CCC1CC(OC(=O)c1c[nH]c3ccccc13)C2` (stereo unspecified), the Ki was more than 10000 nM.
On to `CC[C@@H](CO)NC(=O)[C@@H]1C=C2c3cccc4c3c(cn4C)C[C@H]2N(C)C1`, for which the Ki came out at 386 nM.
Take `Clc1cccc(Cl)c1N=C1NCCN1` [2-(2,6-dichloroanilino)-2-imidazoline]: the Ki was more than 10000 nM.
`c1ccc2nc(N3CCNCC3)ccc2c1` [2-Piperazin-1-yl-quinoline (Quipazine)] gave a Ki of 249 nM. This lies in the sub-micromolar range.
Regarding `O=C(c1ccc(F)cc1)C1CCN(CCn2c(=O)[nH]c3ccccc3c2=O)CC1` [3-(2-{4-[(4-fluorophenyl)carbonyl]piperidin-1-yl}ethyl)-1,2,3,4-tetrahydroquinazoline-2,4-dione], the Ki is more than 10000 nM.
In turn, `O=C(CCCN1CCC2(CC1)C(=O)NCN2c1ccccc1)c1ccc(F)cc1` [8-[4-(4-fluorophenyl)-4-oxidanylidene-butyl]-1-phenyl-1,3,8-triazaspiro[4.5]decan-4-one] returned a Ki of more than 10000 nM.
In turn, `CN1CCN(c2nc3cc(C(F)(F)F)ccc3n3cccc23)CC1` [CAS_109028-10-6] returned a Ki of 32 nM.
`CN1C2CCC1CC(OC(=O)c1cc(Cl)cc(Cl)c1)C2` (stereo unspecified) [MDL 72222] returned a Ki of more than 10000 nM.
Consider `CN1C[C@@H](NS(=O)(=O)N(C)C)C[C@@H]2c3cccc4c3c(cn4C)C[C@H]21` [MESULERGINE], for which the Ki is more than 10000 nM.
To `NCC(O)c1ccc(O)c(O)c1` (stereo not drawn) [Noradrenaline,(+)] belongs more than 10000 nM; to `Cc1ccc(N(CC2=NCCN2)c2cccc(O)c2)cc1` [SMR000059054], 870 nM.
Take `FC(F)(F)c1cccc(N2CCNCC2)c1` [TFMPP]: the Ki is 84 nM.
The molecule `NCCc1c[nH]c2ccc(C(N)=O)cc12` [[3H]-5-carboxamidotryptamine] displayed a Ki of 4 nM.
As to `COc1cc2nc(N3CCN(C(=O)c4ccco4)CC3)nc(N)c2cc1OC` [[3H]-Minipress], the affinity, expressed as Ki, was 290 nM.
For the molecule `Clc1cccc(N2CCNCC2)c1` [mCPP], the affinity, expressed as Ki, was 96 nM.
`CSc1ccc2c(c1)C(N1CCN(C)CC1)Cc1ccccc1S2` (stereo unspecified) [methanesulfonic acid;1-methyl-4-(3-methylsulfanyl-5,6-dihydrobenzo[b][1]benzothiepin-5-yl)piperazine] showed a Ki of 95 nM.
